Test results from US10681909B2, “Herbicidal triazoles” (FMC Corporation, priority 2014, dated 2020).

Columns and labels:
[1] = tested on: velvetleaf; experiment: Test A postemergence; type: in vivo, Abutilon theophrasti; conditions: Abutilon theophrasti, post-emergence, 240 h, 0 to 100 scale (0 no effect, 100 complete control), approx. 10 d, read-out: Plant response rating, Velvetleaf; for pest or weed control at 125 g/ha: 125 g ai/ha; for pest or weed control at 500 g/ha: 500 g ai/ha
Procedure, shortened: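 Test chemicals in a non-phytotoxic solvent with surfactant were applied as a directed soil spray preemergence to seeds sown in loam/sand. Postemergence sprays went to plants 2–10 cm tall at the one- to two-leaf stage. A dash means no result.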

[2] = tested on: galium; experiment: Test C preemergence; type: in vivo, Galium aparine; conditions: for Plant response rating (scale of 0 to 100 where 0 is no effect and 100 is complete control): Galium, preemergence; for Galium plant response rating (0 to 100): Preemergence, visual rating after 13 to 15 d
Source text: (§1) Seeds of plant species selected from blackgrass (Alopecurus myosuroides), ryegrass, Italian (Italian ryegrass, Lolium multiflorum), wheat (winter wheat, Triticum aestivum), galium (catchweed bedstraw, Galium aparine), corn (Zea mays), crabgrass, large (large crabgrass, Digitaria sanguinalis), foxtail, giant, (giant foxtail, Setaria faberii), johnsongrass (Sorghum halepense), lambsquarters (Chenopodium album), morningglory (Ipomoea coccinea), nutsedge, yellow (yellow nutsedge, Cyperus esculentus), pigweed (Amaranthus retroflexus), ragweed (common ragweed, Ambrosia elatior), soybean (Glycine max), barnyardgrass (Echinochloa crus-galli), oilseed rape (Brassica napus), waterhemp (common waterhemp, Amaranthus rudis), and velvetleaf (Abutilon theophrasti) were planted into a blend of loam soil and sand and treated preemergence with test chemicals formulated in a non-phytotoxic solvent mixture which included a surfactant. At the same time, plants selected from these crop and weed species and also chickweed (common chickweed, Stellaria media), oat, wild (wild oat, Avena fatua), and kochia (Kochia scoparia), were planted in pots containing Sunshine Redi-Earth® planting medium comprising spaghnum peat moss, vermiculite, starter nutrients and dolomitic limestone and treated with postemergence applications of test chemicals formulated in the same manner. Plants ranged in height from 2 to 18 cm (1- to 4-leaf stage) for postemergence treatments. […] A dash (-) response means no test result.

[3] = tested on: ragweed; experiment: Test C preemergence; type: in vivo, Ambrosia elatior; conditions: for Ragweed plant response rating (0 to 100): Preemergence, visual rating after 13 to 15 d; for Plant response rating (scale of 0 to 100 where 0 is no effect and 100 is complete control): Ragweed, preemergence
Source text: as §1

[4] = tested on: foxtail, giant; experiment: Test C preemergence; type: in vivo, Setaria faberii; conditions: for Plant response rating (scale of 0 to 100 where 0 is no effect and 100 is complete control): Foxtail, Giant, preemergence; for Foxtail, Giant plant response rating (0 to 100): Preemergence, visual rating after 13 to 15 d
Source text: as §1

[5] = tested on: oilseed rape; experiment: Test C preemergence; type: in vivo, Brassica napus; conditions: for Plant response rating (scale of 0 to 100 where 0 is no effect and 100 is complete control): Oilseed Rape, preemergence; for Oilseed Rape plant response rating (0 to 100): Preemergence, visual rating after 13 to 15 d
Source text: as §1

CCn1nc(-c2ccc(F)cc2)nc1C(=O)c1ccnc(C(F)(F)F)c1 [Compound 19, [1-ethyl-3-(4-fluorophenyl)-1H-1,2,4-triazol-5-yl][2-(trifluoromethyl)-4-pyridinyl]methanone]
pest or weed control at 125 g/ha [1]: 0%
pest or weed control at 500 g/ha [1]: 0%

COc1nc(-c2ccc(F)cc2)nn1Cc1ccnc(C(F)(F)F)c1 [Compound 9, 4-[[3-(4-fluorophenyl)-5-methoxy-1H-1,2,4-triazol-1-yl]methyl]-2-(trifluoromethyl)pyridine]
pest or weed control at 125 g/ha [1]: 50%
pest or weed control at 500 g/ha [1]: 90%
Plant response rating (scale of 0 to 100 where 0 is no effect and 100 is complete control) ([2]; 125 g ai/ha): 90
Plant response rating (scale of 0 to 100 where 0 is no effect and 100 is complete control) ([2]; 250 g ai/ha): 98
Galium plant response rating (0 to 100) ([2]; 31 g ai/ha): 5
Galium plant response rating (0 to 100) ([2]; 62 g ai/ha): 5
Ragweed plant response rating (0 to 100) ([3]; 31 g ai/ha): 25
Ragweed plant response rating (0 to 100) ([3]; 62 g ai/ha): 60
Plant response rating (scale of 0 to 100 where 0 is no effect and 100 is complete control) ([3]; 125 g ai/ha): 60
Plant response rating (scale of 0 to 100 where 0 is no effect and 100 is complete control) ([3]; 250 g ai/ha): 85
Plant response rating (scale of 0 to 100 where 0 is no effect and 100 is complete control) ([4]; 125 g ai/ha): 100
Plant response rating (scale of 0 to 100 where 0 is no effect and 100 is complete control) ([4]; 250 g ai/ha): 100
Foxtail, Giant plant response rating (0 to 100) ([4]; 31 g ai/ha): 80
Foxtail, Giant plant response rating (0 to 100) ([4]; 62 g ai/ha): 100
Plant response rating (scale of 0 to 100 where 0 is no effect and 100 is complete control) ([5]; 125 g ai/ha): 95
Plant response rating (scale of 0 to 100 where 0 is no effect and 100 is complete control) ([5]; 250 g ai/ha): 100
Oilseed Rape plant response rating (0 to 100) ([5]; 31 g ai/ha): 0
Oilseed Rape plant response rating (0 to 100) ([5]; 62 g ai/ha): 60

CCCc1nc(-c2ccc(F)cc2)nn1Cc1ccnc(C(F)(F)F)c1 [Compound 6, 4-[[3-(4-fluorophenyl)-5-propyl-1H-1,2,4-triazol-1-yl]methyl]-2-(trifluoromethyl)pyridine]
pest or weed control at 125 g/ha [1]: 90%
pest or weed control at 500 g/ha [1]: 100%
Plant response rating (scale of 0 to 100 where 0 is no effect and 100 is complete control) ([2]; 125 g ai/ha): 100
Plant response rating (scale of 0 to 100 where 0 is no effect and 100 is complete control) ([2]; 250 g ai/ha): 100
Galium plant response rating (0 to 100) ([2]; 31 g ai/ha): 90
Galium plant response rating (0 to 100) ([2]; 62 g ai/ha): 98
Ragweed plant response rating (0 to 100) ([3]; 31 g ai/ha): 20
Ragweed plant response rating (0 to 100) ([3]; 62 g ai/ha): 20
Plant response rating (scale of 0 to 100 where 0 is no effect and 100 is complete control) ([3]; 125 g ai/ha): 55
Plant response rating (scale of 0 to 100 where 0 is no effect and 100 is complete control) ([3]; 250 g ai/ha): 80
Plant response rating (scale of 0 to 100 where 0 is no effect and 100 is complete control) ([4]; 125 g ai/ha): 100
Plant response rating (scale of 0 to 100 where 0 is no effect and 100 is complete control) ([4]; 250 g ai/ha): 100
Foxtail, Giant plant response rating (0 to 100) ([4]; 31 g ai/ha): 100
Foxtail, Giant plant response rating (0 to 100) ([4]; 62 g ai/ha): 100
Plant response rating (scale of 0 to 100 where 0 is no effect and 100 is complete control) ([5]; 125 g ai/ha): 100
Plant response rating (scale of 0 to 100 where 0 is no effect and 100 is complete control) ([5]; 250 g ai/ha): 100
Oilseed Rape plant response rating (0 to 100) ([5]; 31 g ai/ha): 70
Oilseed Rape plant response rating (0 to 100) ([5]; 62 g ai/ha): 100

CCn1nc(-c2ccc(F)cc2)nc1C(O)c1ccnc(C(F)(F)F)c1 (stereo not drawn) [Compound 15, α-[1-Ethyl-3-(4-fluorophenyl)-1H-1,2,4-triazol-5-yl]-2-(trifluoromethyl)-4-pyridinemethanol]
pest or weed control at 125 g/ha [1]: 0%
pest or weed control at 500 g/ha [1]: 0%

COc1nc(-c2ccccc2)nn1Cc1ccnc(C(F)(F)F)c1 [Compound 32]
Plant response rating (scale of 0 to 100 where 0 is no effect and 100 is complete control) ([2]; 125 g ai/ha): 60
Plant response rating (scale of 0 to 100 where 0 is no effect and 100 is complete control) ([2]; 250 g ai/ha): 80
Galium plant response rating (0 to 100) ([2]; 31 g ai/ha): 0
Galium plant response rating (0 to 100) ([2]; 62 g ai/ha): 0
Ragweed plant response rating (0 to 100) ([3]; 31 g ai/ha): 0
Ragweed plant response rating (0 to 100) ([3]; 62 g ai/ha): 5
Plant response rating (scale of 0 to 100 where 0 is no effect and 100 is complete control) ([3]; 125 g ai/ha): 10
Plant response rating (scale of 0 to 100 where 0 is no effect and 100 is complete control) ([3]; 250 g ai/ha): 65
Plant response rating (scale of 0 to 100 where 0 is no effect and 100 is complete control) ([4]; 125 g ai/ha): 85
Plant response rating (scale of 0 to 100 where 0 is no effect and 100 is complete control) ([4]; 250 g ai/ha): 100
Foxtail, Giant plant response rating (0 to 100) ([4]; 31 g ai/ha): 5
Foxtail, Giant plant response rating (0 to 100) ([4]; 62 g ai/ha): 70
Plant response rating (scale of 0 to 100 where 0 is no effect and 100 is complete control) ([5]; 125 g ai/ha): 10
Plant response rating (scale of 0 to 100 where 0 is no effect and 100 is complete control) ([5]; 250 g ai/ha): 85
Oilseed Rape plant response rating (0 to 100) ([5]; 31 g ai/ha): 5
Oilseed Rape plant response rating (0 to 100) ([5]; 62 g ai/ha): 20
